From patent publication US20120165403A1, “METHODS OF INHIBITING THE ACTIVITY OF HSP90 AND/OR ARYL HYDROCARBON RECEPTOR” (UNIVERSITY OF ROCHESTER, priority 2004, published 2012)

Assays:
mouse AhR = experiment: Competitive binding by velocity sedimentation on sucrose density gradients
Experimental: Mouse hepatoma cells, Hepa1c1c7 (Hepa), and BP^rCl cells were maintained in modified Eagle's medium (Sigma) supplemented with 10% heat-inactivated fetal bovine serum, sodium pyruvate, L-glutamine, sodium bicarbonate, and Gentamicin (MEM+), at 37° C. in a humid atmosphere with 5% CO2. BP^rCl cells are a derivative of Hepa1c1c7 cells that lack ARNT protein expression and function (Probst et al., Mol. Pharmacol. 44:511-518 (1993), which is hereby incorporated by reference in its entirety). Upon reaching 90% confluency, cells were harvested and homogenized in HEDG buffer (25 mM HEPES, 1.5 mM Na2EDTA, 1 mM dithiothreitol, 10% (v/v) glycerol, pH 7.6) containing protease inhibitors (Roche Applied Science complete mini cocktail tablet, Indianapolis, Ind.). Both Hepa and BP^rC1 cytosols were prepared by centrifugation of the homogenate at 100,000 g for 45 min.
Competitive binding of EGCG was analyzed by velocity sedimentation on sucrose gradients in a vertical tube rotor (Tsui et al., Can. J. Physiol. Pharmacol 59:927-931 (1981); Jensen et al., Toxicol. Sci. 64:41-56 (2001), which are hereby incorporated by reference in their entirety). Hepa cytosol (100 μl of 2.5 mg/ml) or BP^rCl cytosol was incubated for two hours at room temperature with either 3 nM ^3H-TCDD, 0.5 nM ^3H-TCDD, or 5 nM ^3H-BNF, in the presence of DMSO, 150-fold excess TCDF, 1 μM 3M4NF, or EGCG. Cytosols were washed with charcoal-dextran (1 mg charcoal/mg protein) in HEDG, and applied to a 10-30% (w/v) sucrose gradient in Beckman Quick-Seal centrifuge tubes (Beckman, Palo Alto, Calif.). [Methyl-^14C]-BSA was used as an internal sedimentation marker. The gradients were centrifuged for 2 h at 372,000×g in a Beckman VTI-80 rotor. Fractions were collected from the top at a rate of 1 ml/min, 0.2 ml/fraction. For competitive binding assays, fractions were assayed for radioactivity with ScintiVerse (Fisher Scientific, Fair Lawn, N.J.). […] For AhR and hsp90 density analysis, protein contained within an aliquot (200 of each fraction was separated by SDS-PAGE (7.5% acrylamide resolving gel) and transferred to PVDF membranes. Membranes were probed with antibodies recognizing AhR (Biomol) or hsp90 (Stressgen, Victoria, BC Canada). A crude estimate of the sedimentation coefficient for the EGCG shifted AhR complex was calculated by the method of Martin and Ames (Martin et al., J. Biol. Chem. 236:1372-1379 (1961), which is hereby incorporated by reference in its entirety) relative to the ^14C-BSA (4.4S) standard.

AhR = experiment: Immunocytochemistry of AhR subcellular localization in Hepa cells; assay type: cell-based, mouse; details: 1 h
Experimental: Hepa cells were plated onto four-well chamber slides (Becton Dickinson, Bedford, Mass.) at a density of 2.0×10^4 and incubated overnight. Cells were treated with either vehicle (DMSO), TCDD (150 pM), EGCG alone (200 μM), or EGCG in the presence of TCDD (150 pM) for 1 h. Cells were fixed with 3.7% formalin at room temperature for 10 minutes, followed by a four minute incubation in anhydrous methanol at 4° C. All antibodies were filtered through a 0.45 micron filter before staining Cells were blocked for one hour in phosphate buffered saline containing 4% BSA, incubated with anti-AhR at a 1:2000 dilution for two hours at room temperature, followed by a one hour incubation with 1:1000 anti-rabbit Alexa-Fluor conjugated secondary antibody (Molecular Probes, Eugene Oreg.). Nuclei were stained with DAPI (0.5 μg/ml) (Molecular Probes) for three minutes at room temperature. Slides were mounted with 50% glycerol and coverslipped. AhR staining and nuclear staining were visualized using a Nikon Eclipse TS110 fluorescent microscope (40× magnification). Fluorescent images were captured using SPOT advanced software.

Compound: O=C(O[C@@H]1Cc2c(O)cc(O)cc2O[C@@H]1c1cc(O)c(O)c(O)c1)c1cc(O)c(O)c(O)c1 [EGCG, epigallocatechin gallate]
- displacement of TCDD from the AhR ligand-binding site (mouse AhR; ARNT deficient BPrC1 cytosol, lower concentrations of 3H-TCDD): incapable of displacing TCDD
- inhibition of TCDD binding after pretreatment (mouse AhR; BPrC1 cytosol pretreated 30 minutes with EGCG): failed to inhibit TCDD binding
- competition with 3H-TCDD for specific binding to the AhR (9S peak) (mouse AhR; Hepa cytosol, 3 nM 3H-TCDD, 2 h, room temperature): failed to attenuate the ^3H-TCDD 9S signal
- competition with 3H-BNF for binding to the AhR (mouse AhR; Hepa cytosol, 5 nM 3H-BNF, 2 h, room temperature): failed to inhibit BNF binding
- effect on TCDD induced nuclear localization of the AhR (AhR; 200 μM EGCG with 150 pM TCDD): did not attenuate this TCDD induced nuclear localization
- subcellular localization of the AhR, treatment alone (AhR; EGCG 200 μM or TCDD 150 pM): remarkable redistribution of the AhR from the cytosol to the nucleus
